Assay results taken from ChEMBL document CHEMBL4311990, “Synthesis, biological activity, and mechanism of action of new 2-pyrimidinyl hydrazone and N-acylhydrazone derivatives, a potent and new classes of antileishmanial agents” (Eur J Med Chem, 2019).
Calls of active or inactive are those of the source. The rule behind the calls is not given here.

Experiments:
Leishmania amazonensis [1] = experiment: Antileishmanial activity against wild type Leishmania amazonensis IFLA/BR/67/PH8 promastigotes assessed as parasite viability incubated for 72 hrs by MTT assay; assay type: functional, organism-based; settings: IFLA/BR/67/PH8, 72 h
[2] = Cytotoxicity against sodium thioglycolate-stimulated BALB/c mouse peritoneal macrophages measured after 72 hrs; assay type: cell-based, Peritoneal macrophage
Leishmania amazonensis [3] = experiment: Effect on plasma membrane integrity in wild type Leishmania amazonensis IFLA/BR/67/PH8 promastigotes assessed as increase in fluorescence intensity at 9.66 to 19.32 uM measured after 24 hrs by propidium iodide staining based spectrofluorimetry analysis; assay type: functional, organism-based
Leishmania amazonensis [4] = experiment: Induction of mitochondrial membrane depolarization in wild type Leishmania amazonensis IFLA/BR/67/PH8 promastigotes assessed as reduction in fluorescence intensity at 19.32 uM measured after 72 hrs by Mitotracker red staining based spectrofluorimetry analysis relative to control; assay type: functional; design: scale not given: the % may be the effect or the level left
[5] = Selectivity index, ratio of CC50 for BALB/c mouse peritoneal macrophages to IC50 for GFP-expressing Leishmania amazonensis MHOM/BR/75/Josefa intracellular amastigotes infected in murine peritoneal macrophages; assay type: toxicity, cell-based; settings: read-out: Ratio CC50/IC50
Leishmania amazonensis [6] = experiment: Induction of ROS generation in wild type Leishmania amazonensis IFLA/BR/67/PH8 promastigotes assessed as increase in ROS level by measuring fluorescence intensity at 19.32 uM measured after 24 hrs by H2DCFDA probe based fluorimetry analysis relative to control; assay type: functional
Leishmania amazonensis [7] = experiment: Induction of ROS generation in wild type Leishmania amazonensis IFLA/BR/67/PH8 promastigotes assessed as increase in ROS level by measuring fluorescence intensity at 9.66 uM measured after 24 hrs by H2DCFDA probe based fluorimetry analysis relative to control; assay type: functional
Leishmania amazonensis [8] = experiment: Antileishmanial activity against GFP-expressing Leishmania amazonensis MHOM/BR/75/Josefa intracellular amastigotes infected in murine peritoneal macrophages incubated for 72 hrs by spectrofluorimetry analysis; assay type: functional, organism-based
Leishmania amazonensis [9] = experiment: Induction of mitochondrial membrane depolarization in wild type Leishmania amazonensis IFLA/BR/67/PH8 promastigotes assessed as reduction in ratio of […] at 19.32 uM measured after 72 hrs by JC-1 based spectrofluorimetry analysis relative to control; assay type: functional; design: scale not given: the % may be the effect or the level left
Leishmania amazonensis [10] = experiment: Induction of mitochondrial membrane depolarization in wild type Leishmania amazonensis IFLA/BR/67/PH8 promastigotes assessed as reduction in fluorescence intensity at 48.56 uM measured after 72 hrs by Mitotracker red staining based spectrofluorimetry analysis relative to control; assay type: functional; design: scale not given: the % may be the effect or the level left
Leishmania amazonensis [11] = experiment: Induction of ROS generation in wild type Leishmania amazonensis IFLA/BR/67/PH8 promastigotes assessed as increase in ROS level by measuring fluorescence intensity at 48.56 uM measured after 24 hrs by H2DCFDA probe based fluorimetry analysis relative to control; assay type: functional
Leishmania amazonensis [12] = experiment: Induction of change in plasma membrane integrity in wild type Leishmania amazonensis IFLA/BR/67/PH8 promastigotes assessed as increase in fluorescence intensity at 24.28 uM measured after 24 hrs by propidium iodide staining based spectrofluorimetry analysis relative to control; assay type: functional
Leishmania amazonensis [13] = experiment: Induction of change in plasma membrane integrity in wild type Leishmania amazonensis IFLA/BR/67/PH8 promastigotes assessed as increase in fluorescence intensity at 48.56 uM measured after 24 hrs by propidium iodide staining based spectrofluorimetry analysis relative to control; assay type: functional
Leishmania amazonensis [14] = experiment: Induction of mitochondrial membrane depolarization in wild type Leishmania amazonensis IFLA/BR/67/PH8 promastigotes assessed as reduction in ratio of […] at 48.56 uM measured after 72 hrs by JC-1 probe based spectrofluorimetry analysis relative to control; assay type: functional; design: scale not given: the % may be the effect or the level left
Leishmania amazonensis [15] = experiment: Induction of ROS generation in wild type Leishmania amazonensis IFLA/BR/67/PH8 promastigotes assessed as increase in ROS level by measuring fluorescence intensity at 24.28 uM measured after 24 hrs by H2DCFDA probe based fluorimetry analysis relative to control; assay type: functional
Leishmania amazonensis [16] = experiment: Induction of mitochondrial membrane depolarization in wild type Leishmania amazonensis IFLA/BR/67/PH8 promastigotes assessed as reduction in fluorescence intensity at 24.28 uM measured after 72 hrs by Mitotracker red staining based spectrofluorimetry analysis relative to control; assay type: functional; design: scale not given: the % may be the effect or the level left
Leishmania amazonensis [17] = experiment: Induction of mitochondrial membrane depolarization in wild type Leishmania amazonensis IFLA/BR/67/PH8 promastigotes assessed as reduction in ratio of […] at 24.28 uM measured after 72 hrs by JC-1 probe based spectrofluorimetry analysis relative to control; assay type: functional; design: scale not given: the % may be the effect or the level left

Row | IC50 (Leishmania amazonensis [8]) | Structure (SMILES) | IC50 (Leishmania amazonensis [1]) | CC50 at 72 h [2] | selectivity ratio [5] | other results
1 | 4.07 µM | C(=N\Nc1ncccn1)/c1ccccn1 | 9.66 µM | 24.6 µM | 6.04 | Activity (Leishmania amazonensis [3]): inactive; Activity (Leishmania amazonensis [4]): 30.27%; Activity (Leishmania amazonensis [6]): 88.13%; Activity (Leishmania amazonensis [7]): 111.1%; Activity (Leishmania amazonensis [9]): 10.97%
2 | 52.1 µM | Cc1ccc(/C=N/Nc2ncccn2)c(O)c1 | 56 µM | 54.8 µM | 1.05 | –
3 | 69.1 µM | O=C(N/N=C/c1cc([N+](=O)[O-])ccc1O)c1ncccn1 | 29 µM | 63.4 µM | 0.91 | –
4 | > 100 µM | O=C(N/N=C/c1ccc(O)cc1O)c1ncccn1 | > 100 µM | > 150 µM | > 1.5 | –
5 | 4.05 µM | CCCCCCCCCCCCCCCCOP(=O)([O-])OCC[N+](C)(C)C [MILTEFOSINE] | – | 132 µM | 32.6 | –
6 | 10.1 µM | O=[N+]([O-])c1ccc(O)c(/C=N/Nc2ncccn2)c1 | 10.5 µM | 23.8 µM | 2.36 | –
7 | 57.9 µM | Oc1ccccc1/C=N/Nc1ncccn1 | 28.1 µM | 84.2 µM | 1.45 | –
8 | 10.8 µM | O=C(N/N=C/c1ccc([N+](=O)[O-])o1)c1ncccn1 | 24.3 µM | 29.1 µM | 2.68 | Activity (Leishmania amazonensis [10]): 55.48%; Activity (Leishmania amazonensis [11]): 74.11%; Activity (Leishmania amazonensis [12]): 82.9%; Activity (Leishmania amazonensis [13]): 143%; Activity (Leishmania amazonensis [14]): 49.75%; Activity (Leishmania amazonensis [15]): 47.66%; Activity (Leishmania amazonensis [16]): 54.94%; Activity (Leishmania amazonensis [17]): 36%
9 | 73.9 µM | O=C(N/N=C/c1cc(O)ccc1O)c1ncccn1 | 39.3 µM | > 150 µM | > 2.03 | –
10 | 33.9 µM | O=C(N/N=C/c1cccc(O)c1O)c1ncccn1 | 27.4 µM | > 150 µM | > 4.42 | –
11 | 35.8 µM | Cc1ccc(/C=N/NC(=O)c2ncccn2)c(O)c1 | 52 µM | > 150 µM | > 4.19 | –
12 | > 100 µM | O=C(N/N=C/c1ccccn1)c1ncccn1 | > 100 µM | > 150 µM | > 1.5 | –
13 | 45.7 µM | Oc1ccc(O)c(/C=N/Nc2ncccn2)c1 | 27.5 µM | 89.4 µM | 1.95 | –
14 | > 100 µM | O=C(N/N=C/c1ccccc1O)c1ncccn1 | 90 µM | > 150 µM | > 1.5 | –
15 | 14.5 µM | Oc1cccc(/C=N/Nc2ncccn2)c1O | 7.95 µM | > 150 µM | > 10.3 | –
16 | 8.41 µM | O=C(N/N=C/c1ccc([N+](=O)[O-])s1)c1ncccn1 | > 100 µM | > 150 µM | > 17.8 | –
